Source: patent publication US8980226B2, “Aerosolized fosfomycin/aminoglycoside combination for the treatment of bacterial respiratory infections” (Gilead Sciences, Inc., priority 2004, dated 2015)
Where two headings read alike, the source gives them in different places.

Columns and labels:
Assay type in all cases: cell-based
[1] = test system: 100 P. aeruginosa strains isolated from lung sputum samples from cystic fibrosis patients; experiment: MIC50 and MIC90 for 100 P. aeruginosa strains, without mucin; conditions: Pseudomonas aeruginosa
Procedure: (§1) The MICs of fosfomycin alone, tobramycin alone, or combinations of fosfomycin plus tobramycin were determined by the agar-plate dilution method according to NCCLS guidelines (NCCLS, 2003). Bacterial strains were streaked onto Trypic Soy Agar plates (PML Microbiologicals, Wilsonville, Oreg.) containing 5% defibrinated sheep blood (hereafter referred to as blood agar plates) and incubated overnight at 35° C. Two to three bacterial colonies from the overnight cultures were inoculated into 3 mL of sterile normal saline, vortexed briefly, and adjusted to a 0.5 McFarland standard (NCCLS, 2003). The bacterial suspension was diluted 1:40 in sterile normal saline and served as the inoculum. Mueller-Hinton agar plates (hereafter referred to as MHA) were prepared by combining 16 g of agarose (Becton-Dickinson, Sparks, Md.), 22 g of Mueller-Hinton broth powder (Becton-Dickinson, Sparks, Md.), and adjusted to 1 L with distilled water. The agar was sterilized by autoclaving, cooled to 55° C., and supplemented with 25 μg/mL of glucose-6-phosphate (Sigma-Aldrich, St. Louis, Mo.). Twenty-five mL of cooled agar was aliquoted into 50 mL conical tubes and supplemented with appropriate concentrations of antibiotic to achieve concentrations ranging from 0.06 μg/mL to 512 μg/mL. After gently mixing the agar and antibiotic, the suspension was poured into sterile 100 mm petri dishes and allowed to solidify at room temperature. The antibiotic agar plates were inoculated with approximately 2×10^4 CFU/spot with a 48-point inoculator (Sigma-Aldrich, St. Louis, Mo.). The MIC was defined as the lowest concentration of antibiotic (s) that prevented visible growth after incubation for 18-20 hours at 35° C. The efficacy of a particular antibiotic or antibiotic combination on large populations of P. aeruginosa was determined by calculating the MIC50 and MIC90 values. The MIC50 value was defined as the concentration of antibiotic(s) which inhibited 50% of the P. aeruginosa strains. The MIC90 value was defined as the concentration of antibiotic(s) which inhibited 90% of the P. aeruginosa strains (Wiedemann and Grimm, 1996).

[2] = test system: 100 P. aeruginosa strains isolated from lung sputum samples from cystic fibrosis patients; experiment: MIC50 and MIC90 for 100 P. aeruginosa strains, CF mucin binding model (+mucin); conditions: Pseudomonas aeruginosa; for MIC90: read-out: MIC90 Mucin (+)
Procedure: as §1
The MICs of fosfomycin alone, tobramycin alone, or combinations of fosfomycin plus tobramycin were determined for P. aeruginosa strains in the presence of porcine gastric mucin to evaluate the effect of mucin and protein binding on antibiotic activity. Methodologies were identical to that described in Example 5, Method A, with the exception that 2% (weight/volume) porcine gastric mucin (Sigma Chemical Co., St. Louis, Mo.) was added to the MHA prior to autoclaving.

P. aeruginosa = conditions: for Frequency of Resistance: plates with 128 μg/mL fosfomycin, 8 μg/mL tobramycin, or both
Procedure: The frequency of single-step spontaneous resistance mutation was determined for 5 susceptible P. aeruginosa strains. The bacterial inoculum was prepared by inoculating 5 mL of CAMHB with 2-3 bacterial colonies and incubating at 35° C. in a shaking water bath (250 rpm) for 18 h. A 1:20 dilution of the overnight culture was made into 50 mL of fresh CAMHB in a 125 ml erlenmyer flask and incubated at 35° C. in a shaking waterbath (250 rpm) for 8 hours. Cultures were centrifuged at 2,500 rpm, room temperature, for 20 min. The supernatant was decanted off and the cell pellet from the 50 mL of culture resuspended in 500 μl-1000 μl CAMHB. The CFU/mL in the bacterial suspension was determined by making 10-fold serial dilutions in sterile normal saline, and spreading 100 μl aliquots on blood agar plates. Culture plates were incubated at 35° C. for 18-24 hours and the number of colonies enumerated manually. One hundred microliters of bacterial cell suspension (approximately 10^9 CFU) was spread onto MHA plates containing 128 μg/mL of fosfomycin, 8 μg/mL of tobramycin, or 128 μg/mL of fosfomycin plus 8 μg/mL of tobramycin. The culture plates were incubated at 35° C. for 48-72 hours and the number of colonies on each plate was enumerated manually. The frequency of resistance was calculated by dividing the number of bacteria growing at the defined antibiotic concentration by the number of bacteria in the original inoculum. Representative mutants were evaluated for changes in MIC to fosfomycin alone, tobramycin alone, and fosfomycin plus tobramycin combinations as described in Example 5, Method A.

P. aeruginosa COR-014 = experiment: Multistep resistance analysis (continuous serial passage); conditions: for MIC: Pseudomonas aeruginosa
Procedure: A single colony of P. aeruginosa COR-014 was inoculated into 5 mL of MHCAB and briefly vortexed. Two-fold serial dilutions of fosfomycin alone covering the range of 1 μg/mL-512 μg/mL, tobramycin alone covering 0.0625 μg/mL-512 μg/mL, and a 9:1 fosfomycin:tobramycin combination covering 0.0625 μg/mL-512 μg/mL were made in CAMHB. Ten microliters of bacterial suspension was pipetted into 3 mL of each antibiotic dilution and incubated statically at 35° C. for 18-24 hours. Tubes with the highest concentration of antibiotic having visible bacterial growth were selected from each antibiotic dilution series and 100 μl of the culture was pipeted into a fresh antibiotic dilution series. Tubes were incubated statically at 35° C. for 18-24 hours. This process was repeated for a total of 28 times. MICs of fosfomycin alone, tobramycin alone, and fosfomycin plus tobramycin were determined for the parent strain and resistant isolates collected after each passage as described in Example 5, Method C.

[3] = 100 P. aeruginosa strains, 2% porcine gastric mucin
[4] = mutants of P. aeruginosa ATCC 27853
[5] = mutants of P. aeruginosa COR-002
[6] = mutants of P. aeruginosa COR-003
[7] = mutants of P. aeruginosa COR-013
[8] = mutants of P. aeruginosa COR-014
[9] = 28 days of continuous exposure, clinical P. aeruginosa strain
[10] = COR014, 168 h, read-out: MIC 7d
[11] = COR014, 336 h, read-out: MIC 14d
[12] = COR014, 504 h, read-out: MIC 21d
[13] = COR014, 672 h, read-out: MIC 28d
[14] = COR014, read-out: MIC of the parent strain

Structure (SMILES) | MIC50 [1] [µg/mL] | MIC90 [1] [µg/mL] | MIC50 [2, 3] [µg/mL] | Frequency of Resistance (P. aeruginosa; P. aeruginosa ATCC 27853) | Frequency of Resistance (P. aeruginosa; P. aeruginosa COR-002) | Frequency of Resistance (P. aeruginosa; P. aeruginosa COR-003) | Frequency of Resistance (P. aeruginosa; P. aeruginosa COR-013) | Frequency of Resistance (P. aeruginosa; P. aeruginosa COR-014) | Fold Increase in MIC after a single exposure to antibiotic (P. aeruginosa; [4]) | Fold Increase in MIC after a single exposure to antibiotic (P. aeruginosa; [5]) | Fold Increase in MIC after a single exposure to antibiotic (P. aeruginosa; [6]) | Fold Increase in MIC after a single exposure to antibiotic (P. aeruginosa; [7]) | Fold Increase in MIC after a single exposure to antibiotic (P. aeruginosa; [8]) | MIC (P. aeruginosa COR-014; COR014, 0 h, read-out: MIC 0d) [µg/mL] | MIC (P. aeruginosa COR-014; [10]) [µg/mL] | MIC (P. aeruginosa COR-014; [11]) [µg/mL] | MIC (P. aeruginosa COR-014; [12]) [µg/mL] | MIC (P. aeruginosa COR-014; [13]) [µg/mL] | MIC (P. aeruginosa COR-014; [14]) [µg/mL] | other results
C[C@@H]1O[C@@H]1P(=O)(O)O [Fosfomycin] | 64 | ≥ 512 | 64 | 4.1 × 10^−5 | 1.4 × 10^−3 | 5.5 × 10^−4 | 6.4 × 10^−3 | 1.5 × 10^−5 | 128 | >256 | >256 | >64 | >512 | 16 | > 512 | > 512 | > 512 | > 512 | 8 | MIC90 [2]: 128 µg/mL; development of resistance on continuous exposure (P. aeruginosa COR-014; [9]): rapid and dramatic development of resistance
NC[C@H]1O[C@H](O[C@H]2[C@H](O)[C@@H](O[C@H]3O[C@H](CO)[C@@H](O)[C@H](N)[C@H]3O)[C@H](N)C[C@@H]2N)[C@H](N)C[C@@H]1O [Tobramycin] | 2 | 16 | 16 | 3.4 × 10^−6 | 6.7 × 10^−6 | 3.2 × 10^−6 | 2.6 × 10^−6 | 5.0 × 10^−6 | 1 | 1 | 2 | 8 | 16 | 0.5 | 0.5 | 0.5 | 32 | 64 | 0.5 | MIC90 [2, 3]: 64 µg/mL; increase in MIC of mutants after a single exposure (P. aeruginosa; range over the P. aeruginosa mutants): 2-16 fold; increase in MIC on continuous exposure (P. aeruginosa COR-014; [9]): 128 fold
